Reference: patent publication US8211883B2, “Topical delivery of phthalocyanines” (priority 2004, dated 2012)

Columns and labels:
[1] = system: Mouse lymphoma L5178y-R cells; assay: Clonogenic cell survival of PDT-treated LY-R cells; type: cell-based; conditions: 0.5 μM; for activity relative to PcXII: from LD50/LD90 fluences
Procedure: Mouse lymphoma L5178y-R (hereinafter also referred to as “LY-R”) cells were grown in suspension culture as described in Ramakrishnan N., Oleinick, N. L. Clay, M. E., Homg, M. F., Antunez, A. R., and Evans H. H., Photochem. Photobiol. 50, 373-378, 1989 and Agarwal, M. L., Clay, M. E., Harvey, E. J., Evans, H. H., Antunez, A. R., and Oleinick, N. L., Cancer Res., 51, 5993-5996, 1991.
The cells were used while in exponential growth. Stock solutions of either 0.5 or 1 mM of PcIV, PcXII, PcX, PcXVIII were prepared in dimethylformamide unless otherwise indicated and added to the 10 mL medium at a rate of 1 μL per mL. After allowing 18 hours for uptake of the phthalocyanine into the cells, the flasks containing the cultures were placed on a glass exposure tray above a 500-W tungsten-halogen lamp. The exposure tray was fitted with a 600-nm high-pass filter. Flasks were exposed to various fluences of red light (up to 30 kJ/m^2) at a fluence rate of approximately 74 W/m^2). After irradiation, the cells were collected by centrifugation.
For measurement of clonogenic cell survival, aliquots were plated in medium containing soft agar as described in Ramakrishnan N., Oleinick, N. L. Clay, M. E., Homg, M. F., Antunez, A. R., and Evans H. H., Photochem. Photobiol. 50, 373-378, 1989. The aliquots were plated in sufficient numbers to produce 50-200 colonies. The dishes were kept in an incubator at 37° C. in an atmosphere of 5% CO2 and 95% air for 10-14 days to allow viable cells to form colonies. Colonies were counted by eye. Controls treated with the phthalocyanine alone had plating efficiencies of about […]. The plating efficiencies of the treated cells are normalized to the plating efficiencies of control cells in each experiment. For measurement of the induction of apoptosis, DNA was isolated from the treated and control cells 2 hours after photodynamic therapy, subjected to electrophoresis on 1.5% agarose, stained with ethidium bromide, and visualized by UV transillumination, as described in Agarwal et al. The results are shown in Tables 4, 5 and 6 and in FIG. 3.

[2] = system: Chinese hamster V79-379 lung fibroblasts; assay: Clonogenic cell survival of V79 cells after photodynamic treatment; type: cell-based; conditions: for LD 90 (light dosage that kills 90% of cells): 18 hours, 675 nm red light; for CF10(AIPcCI)/CF10 (Pc): CF10 = product of intracellular concentration and fluence reducing survival to 10%; for F10(AIPcCI)/F10 (Pc): F10 = fluence reducing cell survival to 10%
Outline: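 V79 cells exposed to 0.5 or 1.0 μM phthalocyanine, then irradiated about 18 h later with increasing fluences of broad-band red light (600 nm high-pass filter). Survival scored as colonies of ≥50 cells. F10 taken from survival curves; CF10 from survival against intracellular concentration × fluence; 1 μM AlPcCl run as reference.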

[3] = system: L5178Y cells; assay: Induction of apoptosis (DNA ladder) in L5178Y cells after PDT; type: cell-based, Mouse; conditions: for C × F Ld90, Minimum Demonstrated Condition to Induce Apoptosis: product of concentration and fluence
[4] = 0.5 μM, VII# preplated data only, XXI* not totally soluble at 0.5 mM

`CCN(CCC[Si](C)(C)O[Si]1(O[Si](C)(C)CCCN(CC)CCN(C)C)n2c3c4ccccc4c2N=C2N=C(N=c4c5ccccc5c(n41)=NC1=NC(=N3)c3ccccc31)c1ccccc12)CCN(C)C` [Compound XVIII, SiPc[OSi(CH3)2(CH2)3N(CH2CH3)(CH2)2N(CH3)2]2] was tested, and the “Ld50 (fluence that reduces cell survival to 50%)” value [1] was 5.00 kJ/m^2, the “Ld90 (fluence that reduces cell survival to 10%)” value [1] was 7.81 kJ/m^2 and the “activity relative to PcXII” value [1] was 22%. For the same molecule, the “normalized plating efficiency, AVG.” value ([1]; light dose 0 kJ/m^2) was 100, the “normalized plating efficiency, AVG.” value ([1]; light dose 2 kJ/m^2) was 81.8 and the “normalized plating efficiency, AVG.” value ([1]; light dose 3 kJ/m^2) was 73.6. For the same molecule, the “normalized plating efficiency, AVG.” value ([1]; light dose 4 kJ/m^2) was 64.0, the “normalized plating efficiency, AVG.” value ([1]; light dose 5 kJ/m^2) was 52.1 and the “normalized plating efficiency, AVG.” value ([1]; light dose 6 kJ/m^2) was 33.8. For the same molecule, the “normalized plating efficiency, AVG.” value ([1]; light dose 8 kJ/m^2) was 9.13, the “normalized plating efficiency, AVG.” value ([1]; light dose 10 kJ/m^2) was 3.0 and the “LD 90 (light dosage that kills 90% of cells)” value ([2]; 1 μM) was 7 kj/m^2. The “Fluence, Minimum Demonstrated Condition to Induce Apoptosis” value (shortened to “Fluence, Minimum Demonstrated Condition”) ([3]; 0.5 μM) was 10.0 kJ/m^2, the “C × F Ld90, Minimum Demonstrated Condition to Induce Apoptosis” value (“C × F Ld90” below) ([3]; 0.5 μM) was 5.0 kJ/m^2 and the “Fluence, Minimum Demonstrated Condition” value ([3]; 1.0 μM) was 3.0 kJ/m^2. The “C × F Ld90” value ([3]; 1.0 μM) was 3.0 kJ/m^2.

`CN(C)CCC[Si](C)(C)O[Si]1(O)n2c3c4ccccc4c2N=C2N=C(N=c4c5ccccc5c(n41)=NC1=NC(=N3)c3ccccc31)c1ccccc12` (centres unmarked) [Compound IV, HOSiPcOSi(CH3)2(CH2)3N(CH3)2] was tested, and the “Ld50 (fluence that reduces cell survival to 50%)” value [1] was 1.38 kJ/m^2, the “Ld90 (fluence that reduces cell survival to 10%)” value [1] was 2.15 kJ/m^2 and the “activity relative to PcXII” value [1] was “about 80%”. For the same molecule, the “normalized plating efficiency, AVG.” value ([1]; light dose 0 kJ/m^2) was 100, the “normalized plating efficiency, AVG.” value ([1]; light dose 1 kJ/m^2) was 80.9 and the “normalized plating efficiency, AVG.” value ([1]; light dose 2 kJ/m^2) was 19.7. For the same molecule, the “normalized plating efficiency, AVG.” value ([1]; light dose 2.5 kJ/m^2) was 0.82, the “normalized plating efficiency, AVG.” value ([1]; light dose 3 kJ/m^2) was 0.16 and the “normalized plating efficiency, AVG.” value ([1]; light dose 5 kJ/m^2) was 0.014. The “LD 90 (light dosage that kills 90% of cells)” value [2, 4] was 4 kj/m^2, the “CF10(AIPcCI)/CF10 (Pc)” value ([2]; 0.5 μM) was 3.9 and the “F10(AIPcCI)/F10 (Pc)” value ([2]; 0.5 μM) was 1.85. For the same molecule, the “CF10(AIPcCI)/CF10 (Pc)” value ([2]; 1.0 μM) was 3.5, the “F10(AIPcCI)/F10 (Pc)” value ([2]; 1.0 μM) was 4.25 and the “Fluence, Minimum Demonstrated Condition” value ([3]; 0.4 μM) was 3.0 kJ/m^2. The “C × F Ld90” value ([3]; 0.4 μM) was 1.2 kJ/m^2.

For `CN(C)CCC[Si](C)(C)O[Si]1(O[Si](C)(C)CCCN(C)C)n2c3c4ccccc4c2N=C2N=C(N=c4c5ccccc5c(n41)=NC1=NC(=N3)c3ccccc31)c1ccccc12` [Compound XII, SiPc[OSi(CH3)2(CH2)3N(CH3)2]2], the “Ld50 (fluence that reduces cell survival to 50%)” value [1] was 1.11 kJ/m^2, the “Ld90 (fluence that reduces cell survival to 10%)” value [1] was 1.70 kJ/m^2 and the “normalized plating efficiency, AVG.” value ([1]; light dose 0 kJ/m^2) was 100. For the same molecule, the “normalized plating efficiency, AVG.” value ([1]; light dose 1 kJ/m^2) was 82.2, the “normalized plating efficiency, AVG.” value ([1]; light dose 2 kJ/m^2) was 5.23 and the “normalized plating efficiency, AVG.” value ([1]; light dose 2.5 kJ/m^2) was 0.90. For the same molecule, the “normalized plating efficiency, AVG.” value ([1]; light dose 3 kJ/m^2) was 0.15, the “normalized plating efficiency, AVG.” value ([1]; light dose 4 kJ/m^2) was 0.014 and the “normalized plating efficiency, AVG.” value ([1]; light dose 5 kJ/m^2) was 0.0027. For the same molecule, the “LD 90 (light dosage that kills 90% of cells)” value [2, 4] was 3.3 kj/m^2, the “Fluence, Minimum Demonstrated Condition” value ([3]; 0.4 μM) was 3.0 kJ/m^2 and the “C × F Ld90” value ([3]; 0.4 μM) was 1.2 kJ/m^2.
